From US4855489A, “2-acyloxypropylamino derivatives, processes for the preparation thereof, and pharmaceutical compositions containing them” (Goedecke Aktiengesellschaft, priority 1986, dated 1989)
Structures can show the parent of a compound that is named as a salt.

Tests used:
protein kinase C (PKC) = tested on: T1, protein kinase C (PKC); assay: Inhibition of PS/DO-mediated protein kinase C activity (32P incorporation into histone H-1); type: biochemical, chicken; conditions: activity with PKC activators and without test substance = 100%; for inhibition at 10 µM: test substance 10^-5 mol/l; for inhibition at 1 µM: test substance 10^-6 mol/l; for inhibition at 100 µM: test substance 10^-4 mol/l
T1 construct: this enzyme activity was enriched, starting from a chicken gizzard extract; from tissue; host or cells: chicken gizzard
From the text: 1. Inhibition of the enzyme protein kinase C. For the elucidation of the inhibiting influence of the compounds according to the present invention of general formula (I) on the calcium- and phospholipid-dependent protein kinase (PKC), this enzyme activity was enriched, starting from a chicken gizzard extract. The two-step procedure according to purification steps described in the literature (J. Biol. Chem., 260, 15718-15722/1985) utilized the property of the enzyme of binding in the presence of calcium to cell membranes and again dissolving off by calcium chelators (EGTA). In the first purification step, there took place the binding of the PKC to membranes of the chicken gizzard extract and, in the second step, to the so-called inside out vesicles of erythrocytes. After dissolving from the erythrocyte membranes and rebuffering, the PKC preparation was present in 10 mM HEPES, 1 mM DTT and 0.1% PEG 20,000 (pH 7.5) and, under these conditions, it could be stored for several months at -70° C. without loss of activity. The activity of the enzyme was determined via the incorporation of phosphorus 32-labelled phosphate into the protein histon H-1, which is phosphorylatable by PKC. The test thereby contained the following components: 50 mM HEPES (pH 7.5), 1 mM DTT, 5 mM magnesium chloride, about 10 μM free calcium ions, 200 μg/ml histone, 5 μg/ml phosphatidylserine, 1 μg/ml 1,2-diolein, 10 μuM ATP, in each case an appropriate amount of PKC preparation and optionally a test substance. The kinase activity measured under standard conditions in the presence of PKC activators (and without test substance) was, in each case, taken as being 100% and the inhibitory action of the compounds of general formula (I) referred thereto as a percentage.

[1] = tested on: gel-filtered human thrombocytes; assay: Inhibition of OAG-induced platelet aggregation (aggregometer); type: cell-based; conditions: 3 min preincubation, OAG 5×10^-5 M, human platelets; for inhibition at 10 µM: test substance 10^-5 mol/l; for inhibition at 1 µM: test substance 10^-6 mol/l; for inhibition at 100 µM: test substance 10^-4 mol/l
Method: 2. Influence of the compound of Example 1 on platelet aggregation stimulated by oleoylacetylglycerol.
For carrying out the aggregation experiments, use was made of gel-filtered human thrombocytes. These were prepared in the following way: after centrifuging human blood for 15 minutes at 60 xg, the supernatant, i.e., the platelet-rich plasma, was used for the gel filtration. By means of the gel filtration through a column packed with Sepharose CL-2B, the platelets were transferred into a calcium-free, defined buffer medium (15 mM tris, 150 mM sodium chloride, 5.5 mM glucose, 0.2% bovine serum albumin; pH 7.4). Subsequently, the platelets were recalcified to a concentration of 7×10^-4 M calcium. The platelets were then incubated at 37° C. in an aggregometer and, after initiation of the aggregation by a stimulus, the decrease of the absorption was determined as a measure of the aggregation. As aggregation-initiating stimulus, there was used 1-oleoyl-2-acetylglycerol (OAG), an activator of the enzyme protein kinase C (J. Biol. Chem., 258, 6701-6704/1983) in a concentration of 5×10^-5 M. The aggregation achieved under these conditions was taken as being 100% control. The carrying out of the experiments on the influence of the compound of Example 1 on the OAG-stimulated aggregation took place in the following way: the platelets were first incubated for 3 minutes with the compound of Example 1 at the given concentration and subsequently the aggregation was initiated with OAG. The reduced extent of the aggregation was, in each case, calculated as a percentage of the 100% control. The results obtained are set out in Table 1 as well.

| SMILES | inhibition at 10 µM (protein kinase C (PKC)) [%] | inhibition at 1 µM (protein kinase C (PKC)) [%] | inhibition at 100 µM (protein kinase C (PKC)) [%] | also measured |
| --- | --- | --- | --- | --- |
| CCCCCCCCCCCCCCCCOCC(CN(C)C)OC(C)=O (racemic) [Example 1.f, (±)-3-dimethylamino-1-hexadecyloxy-2-propyl acetate hydrochloride] | 27 | – | – | – |
| CCCCCCCC/C=C\CCCCCCCCOCC(CN(C)C)OC(C)=O (racemic) [Example 1.m, (±)-3-dimethylamino-1-(9-cis-octadecenyloxy)-2-propyl acetate hydrochloride] | 48 | 14 | – | – |
| CCCCCCCCCCCCCCCCCCOCC(CN1CCNCC1C)OC(C)=O (stereo not shown) [Example 1.d, 1-(2-methyl)-piperazinyl-3-octadecyloxy-2-propyl acetate oxalate] | 61 | 18 | – | inhibition at 3 µM ([1]; test substance 3 × 10^-6 mol/l): 14%; inhibition at 10 µM [1]: 100%; inhibition at 1 µM [1]: 0% |
| CCCCCCCCCCCCCCC(C)OCC(CN(C)C)OC(C)=O (racemic) [Example 1.l, (±)-3-dimethylamino-1-(2-hexadecyloxy)-2-propyl acetate hydrochloride] | 31 | – | – | – |
| CCCCCCCCCCCCCCCCCCOCC(CN(Cc1ccccc1)Cc1ccccc1)OC(C)=O (racemic) [Example 1.b, (±)-3-dibenzylamino-1-octadecyloxy-2-propyl acetate hydrochloride] | 22 | – | – | – |
| CCCCCCCCCCCCCCCCCCOCC(CNC)OC(C)=O (racemic) [Example 2.a, (±)-3-methylamino-1-octadecyloxy-2-propyl acetate hydrochloride] | 35 | 13 | – | – |
| CCCCCCCCCCCCCCCCCCOCC(CN)OC(C)=O (racemic) [Example 2, (±)-3-Amino-1-octadecyloxy-2-propyl acetate hydrochloride] | 18 | – | 44 | – |
| CCCCCCCCCCCCCCOCC(CN(C)C)OC(C)=O (racemic) [Example 1.e, (±)-3-dimethylamino-1-tetradecyloxy-2-propyl acetate hydrochloride] | 14 | – | – | – |
| CCCOCC(CN(C)C)OC(=O)CC (racemic) [Example 1.c, (±)-3-dimethylamino-1-propoxy-2-propyl propionate oxalate] | – | – | 9 | – |
| CCCCCCCCCCCCCCCCCCOCC(CN1CCCCC1)OC(C)=O (racemic) [Example 1.a, (±)-1-octadecyloxy-3-piperidino-2-propyl acetate hydrochloride] | – | – | 25 | inhibition at 100 µM [1]: 54% |
| CCCCCCCCCCCCCCCCCCCCOCC(CN(C)C)OC(C)=O (racemic) [Example 1.g, (±)-3-dimethylamino-1-eicosanyloxy-2-propyl acetate hydrochloride] | 39 | – | – | inhibition at 10 µM [1]: 53% |
| CCCCCCCCCCCCCCCCCCSCC(CN(C)C)OC(C)=O (racemic) [Example 3, (±)-3-Dimethylamino-1-octadecylthio-2-propyl acetate hydrochloride] | 22 | – | 70 | – |
| CCCCCCCCCCCCCCCCCCOCC(CN(C)C)OC(C)=O (racemic) [Example 1, (±)-3-Dimethylamino-1-octadecyloxy-2-propyl acetate hydrochloride] | 61 | 24 | 86 | inhibition at 100 µM [1]: 100%; inhibition at 10 µM [1]: 48%; inhibition at 1 µM [1]: 2% |
